Each structure is given as a SMILES string.

By logD is commonly meant lipophilicity at a set pH, counting ionised and neutral species.

The data set in a line: physchem. The settings on record: octan-1-ol/water, pH 7.4, LogD7.4.
In turn, `C1=C(c2cc3ccccc3o2)C2CCN1CC2` came in with a pH-dependent lipophilicity (logD) of 2.59.
As to `CC(C)c1ncc(NC(=O)OCc2ccccc2)c(=O)n1CC(=O)NC(C(=O)C(F)(F)F)C(C)C` (configuration not stated), the logD was 2.63.
As for `NC1CCc2cc(OC(=O)c3ccccc3)c(OC(=O)c3ccccc3)cc2C1` (configuration not stated), the log distribution coefficient (logD) is 2.6.
Then `O=C(COCc1ccncc1)N1CCN(c2ccc(Cl)cc2F)CC1`, with 2.55; and `O=C(COCc1ccncc1)N1CCC(c2ccc(Cl)cc2Cl)CC1`, with 2.63.
Then `COc1ccc(-c2cc(O)c3cc(Cl)ccc3n2)cc1`, with 2.7.
Then `CC(N)(COP(=O)(O)O)C(=O)O` (configuration not stated), with 2.5.
As for `CCCC(=O)C1(c2ccccc2)CCN(C(=O)[C@@H](Cc2ccc(OC)cc2)NC(=O)[C@@H](N)Cc2cncn2C)CC1`, the pH-dependent lipophilicity (logD) worked out at 2.51.
Then `O=C1NC(c2ccc(Br)cc2)Nc2ccccc21` (configuration not stated), with 2.68; and `Cc1ccc(-n2c(C)cc(C(=O)NS(=O)(=O)c3ccc(C)cc3)c2C)cc1`, with 2.5; and `CCOc1ccc(-c2cnc3n2CCC3)cc1`, with 2.65.
For `CCN(CC)S(=O)(=O)c1ccc(NC(=O)C(C)(O)C(F)(F)F)cc1` (configuration not stated), the pH-dependent lipophilicity (logD) stood at 2.63.
Then `O=C1CCOc2nc(CCc3ccccc3)ccc21`, with 2.5.
Turning to `COC(=O)N1CCOc2cc(COc3ccccc3)cnc21`, the logD worked out at 2.5.
Take `COc1cc2nnc(C(N)=O)c(Nc3cc(C)ccc3F)c2cc1N1CCN(C)CC1`: the log distribution coefficient (logD) was determined as 2.57.
Then `O=C(N[C@@H](c1ccccc1)[C@@H]1CCCCN1)c1cccc(C(F)(F)F)c1Cl`, with 2.61.
`COc1ccccc1N1CCN(Cc2c(Br)c(=O)n(-c3ccccc3)n2C)CC1`: the log distribution coefficient (logD) turned out to be 2.5.
Take `COc1cc(F)ccc1-c1cncc(CNC2CCCCC2)c1`: the logD is 2.6.
Under `COc1cc(F)ccc1-c1cncc(CNC(=O)c2cnccn2)c1` stands 2.5; under `Oc1ccc(-c2nc3ccccc3nc2-c2ccc(O)cc2)cc1`, 2.7.
Under `N#Cc1ccccc1Oc1ccc(C(=O)NCc2ccncc2)cc1` stands 2.57.
Under `C=CCCCCCCCCC(=O)N[C@H]1CCC(=O)NC1=O` stands 2.64; under `CCCCN(CCNC[C@H](O)c1ccc(O)c2[nH]c(=O)sc12)C(=O)CCOCCc1ccccc1`, 2.51; under `CCC(c1nc2ccsc2c(=O)n1Cc1ccccc1)N(CCCN)C(=O)c1ccc(C)nc1` (configuration not stated), 2.56.
`CCOC(=O)c1ccc(COC2CN(c3ccc(C)nn3)C2)cc1` gave a logD of 2.5.
The molecule `COc1cc2ncnc(Nc3cc(NC(=O)c4ccnc(N5CCOCC5)c4)ccc3C)c2cc1OCCN1CCCC1` displayed a logD of 2.7.
`Cc1ccc(NC(=O)c2cccc(N(C)C)c2)cc1NC(=O)c1ccc(O)cc1` had a log distribution coefficient (logD) of 2.65.
Under `COc1cc(C(=O)Nc2cc(NC(=O)c3cccc(N(C)C)c3)ccc2C)cc(OC)c1OC` stands 2.54; under `COc1ccc(NC(=O)c2ccc(-c3ccncc3)c(C)c2)cc1N1CCN(C)CC1`, 2.56; under `Clc1ccccc1-c1c[nH]nn1`, 2.68.
For `Cc1ccc(C(=O)NC2CCN(c3cc(C(N)=O)cc(Cl)n3)CC2)[nH]1`, the log distribution coefficient (logD) was found to be 2.64.
As for `O=C(Cc1ccc(O)cc1)c1ccc(O)cc1O`, the logD came to 2.54.
Then `Cc1ccc(-c2c[nH]nn2)cc1`, with 2.58; and `CN[C@@H](C)C(=O)N[C@H](C(=O)N[C@H]1CCCN(CCCc2ccccc2)C1)C1CCCCC1`, with 2.6.
Then `CN[C@@H](C)C(=O)N[C@H](C(=O)N[C@H]1CCCN(CCc2cccc(F)c2)C1)C1CCCCC1`, with 2.64.
Then `O=C(Nc1ccc(Nc2ccc(NC(=O)c3ccccc3)c3c2C(=O)c2ccccc2C3=O)c2c1C(=O)c1ccccc1C2=O)c1ccccc1`, with 2.63.
In turn, `NC(=O)c1cnc2[nH]c(-c3ccc(OCCN4CCCCC4)cc3)nc2c1NCCCNC(=O)C1CCC1` displayed a logD of 2.48.
Under `O=C(Nc1ccc(Cl)c(Cl)c1)N1CCN(C[C@@H]2CCCN(CC3CC3)C2)CC1` stands 2.54; under `CCN1CCO[C@@H](CN2CCN(C(=O)Nc3ccc(Cl)c(Cl)c3)CC2)C1`, 2.68; under `Cc1ccc(-c2ncc(C)n2C)cc1NC(=O)c1ccc(OCc2ccccn2)cc1`, 2.67.
For `Cc1ccc(-c2cn(C)cn2)cc1NC(=O)c1ccc(OCc2ccccn2)cc1`, the logD is 2.54.
Under `CC(=O)Nc1cc2c(ccn2-c2cc(NC3CC3)n3ncc(C#N)c3n2)cc1C` stands 2.66; under `CC(=O)Nc1ccc2[nH]cc(-c3cc(NC4CC4)n4ncc(C#N)c4n3)c2c1`, 2.65; under `Cn1cncc1-c1c2c(=O)n(C)c(=O)n(CC3CC3)c2nn1Cc1ccnc2ccc(Cl)cc12`, 2.69.
Then `Cn1cncc1-c1c2c(=O)n(CC#CCO)c(=O)n(CC3CC3)c2nn1Cc1ccnc2ccc(Cl)cc12`, with 2.55; and `Cc1cc(CNc2ncc(Cl)c(Nc3cc(C)[nH]n3)n2)on1`, with 2.68; and `CCCSc1ncccc1C(=O)N(C)[C@@H]1[C@@H]2CC3C[C@H]1C[C@@](O)(C3)C2`, with 2.49.
The molecule `CCCSc1ncccc1C(=O)N(C)[C@H]1[C@@H]2CC3C[C@H]1C[C@@](O)(C3)C2` yielded a logD of 2.48.
Under `CCCSc1nc(NC[C@H]2CC[C@H](C(=O)O)CC2)ccc1C(=O)NC1CCCCC1` stands 2.61.
The molecule `Cc1cc(S(=O)(=O)N2CCN(C)CC2)ccc1-c1cnc(N)c(C(=O)Nc2cccnc2)n1` gave a logD of 2.6.
Then `CC1(O)CN(S(=O)(=O)c2ccc3c(C(=O)NC[C@@H](O)CN4CCC(Oc5ccc(Cl)c(Cl)c5)CC4)c[nH]c(=O)c3c2)C1`, with 2.54.
Consider `O=C(Cc1ccccc1)Nc1nccs1`, for which the log distribution coefficient (logD) was 2.5.
As to `Nc1n[nH]cc1-c1cc(C(F)(F)F)ccc1Oc1cc(F)c(S(=O)(=O)Nc2cscn2)cc1Cl`, the pH-dependent lipophilicity (logD) was 2.65.
Under `CC(C)(c1cc(N2CCOCC2)nc(-c2cccc3[nH]ccc23)n1)S(C)(=O)=O` stands 2.65; under `C[C@H](NC(=O)C1(N)CCN(c2ncnc3[nH]ccc23)CC1)c1ccc(Cl)cc1`, 2.67; under `COCCN(C)Cc1ccc(Nc2ncc3cc(-c4ccncc4)ccc3n2)cc1`, 2.65.
Then `COc1ccc(-c2ccc3c(N4CCOC[C@@H]4C)nc(-n4ccnc4)nc3n2)cc1CO`, with 2.6; and `Cn1c(N)nc(CCc2cccc(-c3cccnc3)c2)cc1=O`, with 2.5.
Then `Nc1nc(CCc2cccc(Br)c2)cc(=O)[nH]1`, with 2.52; and `Cc1sc(CN2CCNCC2)cc1C(=O)NCC12CC3CC(CC(C3)C1)C2`, with 2.55; and `Nc1ccc2ncnc(Nc3ccc(F)c(Cl)c3)c2c1`, with 2.64.
`Clc1cccc2[nH]ncc12` yielded a pH-dependent lipophilicity (logD) of 2.5.
`CCOc1ccccc1-c1ccc(-c2nc3ccc(F)cc3c(N[C@H](C)C(=O)O)c2C#N)cc1` yielded a pH-dependent lipophilicity (logD) of 2.5.
For `COc1ccc2c(C)cc(N[C@H]3CC[C@H](NCc4cn(C)c5ccccc45)C3)nc2c1`, the logD worked out at 2.53.
For `COC(=O)c1nc2c(N[C@H](C)CO)nc(SCc3cccc(F)c3F)nc2[nH]c1=O`, the logD stood at 2.49.
Then `Oc1cc(-c2ccccc2)nc2ccccc12`, with 2.54; and `CC(C)C(NC(=O)Cn1c(-c2ccccc2)ccc(NS(=O)(=O)NCc2ccccc2)c1=O)C(=O)C(F)(F)F` (configuration not stated), with 2.57.
Molecule `COC(=O)CCCCCCC(=O)Nc1ccc2c(c1)-c1ccccc1C(=O)C2=O` came in with a logD of 2.6.
For `CCOc1ccccc1-c1ccc2c(c1)C(=O)C(=O)c1ccccc1-2`, the logD stood at 2.67.
The molecule `COc1ccc(S(=O)(=O)Nc2ccc(-c3ccccc3)n(CC(=O)NC(C(=O)C(F)(F)F)C(C)C)c2=O)cc1` (configuration not stated) showed a logD of 2.5.
The molecule `C[C@@](O)(C(=O)Nc1ccc(C(=O)N2CCCCC2)cc1Cl)C(F)(F)F` had a logD of 2.62.
Molecule `CNC(=O)C1(N2CCCCC2=O)CCN(CC[C@H](CN(C)C(=O)c2cc(C#N)cc3ccccc23)c2ccc(Cl)c(Cl)c2)CC1` gave a logD of 2.5.
Then `O=C1O[C@@H](COc2ccon2)CN1c1ccc(C2=CCOCC2)c(F)c1`, with 2.61.
Molecule `CN(C)C(=O)C1(N2CCCCC2=O)CCN(CC[C@H](CN(C)C(=O)c2cc(C#N)cc3ccccc23)c2ccc(Cl)c(Cl)c2)CC1` registered a logD of 2.52.
In turn, `Clc1ccc2c(c1Nc1ncnc3cc(OCCN4CCCC4)cc(OC4CCOCC4)c13)OCO2` showed a logD of 2.6.
Molecule `Cn1c(-c2ccncc2)cc2onc(-c3ccccc3)c2c1=O` gave a log distribution coefficient (logD) of 2.61.
`CCCCC(O)c1[nH]c2cc(C)c(C(=O)O)cc2c1CCc1ccccc1` (configuration not stated) registered a logD of 2.59.
Then `COCCOc1cc2nccc(Nc3cc(O)c(Cl)cc3F)c2cc1OC`, with 2.64; and `CC(C)n1c(=O)n(C)c(=O)c2c(C(=O)N3CCS(=O)(=O)C3)c(Cc3ccccc3C(F)(F)F)sc21`, with 2.55.
The molecule `Cn1cc(S(C)(=O)=O)nc1-c1c2c(=O)n(C)c(=O)n(CC3CC3)c2nn1Cc1ccnc2ccc(Cl)cc12` returned a logD of 2.64.
On to `COc1cc2ncc(C(N)=O)c(Nc3ccc(F)cc3F)c2cc1NCCN1CCOCC1`, for which the logD was 2.68.
Then `O=C1C(=O)c2cccc([N+](=O)[O-])c2-c2ccccc21`, with 2.6; and `CNC(=O)c1ccc(Nc2nccc(-c3cnc(C)n3C(C)C)n2)cc1`, with 2.69; and `O=C(c1cc(Cc2n[nH]c(=O)c3ccccc23)ccc1F)N1CCN(c2ccccn2)CC1`, with 2.55.
Then `O=C(NCC1CCCCCC1)c1cc(-c2cccnc2N2CCC(C(=O)O)CC2)ccc1Cl`, with 2.53; and `Cn1cc(-c2cccc(C[C@H](NC(=O)c3cc(C(C)(C)C)nn3C)C(=O)NCC#N)c2)cn1`, with 2.6; and `COc1ccccc1-c1coc2cc(O)ccc2c1=O`, with 2.55.
Then `Cc1cc(Oc2ccnc(Nc3ccc(N4CCOCC4)cc3)c2)c(-c2ccccn2)nc1C`, with 2.59; and `C=CCNC(=O)c1cc([N+](=O)[O-])cc2c(=O)[nH]c(Nc3ccc(Cl)c(Cl)c3)nc12`, with 2.7.
Turning to `O=C1Nc2ccc(S(=O)(=O)N3CCC[C@H]3COc3ccccc3)cc2C1=O`, the logD came out at 2.7.
Then `c1ccc(-c2nc3ccccc3[nH]2)nc1`, with 2.5; and `CN1CC(=O)N2[C@H](c3ccc4c(c3)OCO4)c3[nH]c4ccccc4c3C[C@@H]2C1=O`, with 2.6.
